Measured values: paper doi:10.1101/2025.07.02.662867v1 (bioRxiv, 2025)

Assays:
[1] = typical dose of 0.5 to 1 mg; cited from earlier work
[2] = 24-hour IV pharmacokinetic study in T2D rat model; design: species or system STZ/NA diabetic); conditions: male, Sprague Dawley, in vivo
[3] = tested on: type 2-like diabetic male rats; experiment: Blood glucose and body weight over 6 weeks in diabetic rats; type: in vivo, rat (male Sprague Dawley, STZ/NA diabetic); conditions: hydrogel vs daily bolus

| SMILES | half-life in humans [1] [h] | half-life [2] [h] | body weight outcome [3] |
| --- | --- | --- | --- |
| CC[C@H](C)[C@H](NC(=O)[C@H](Cc1ccccc1)NC(=O)[C@H](CCC(=O)O)NC(=O)[C@H](CCCCNC(=O)COCCOCCNC(=O)COCCOCCNC(=O)CC[C@H](NC(=O)CCCCCCCCCCCCCCCCC(=O)O)C(=O)O)NC(=O)[C@H](C)NC(=O)[C@H](C)NC(=O)[C@H](CCC(N)=O)NC(=O)CNC(=O)[C@H](CCC(=O)O)NC(=O)[C@H](CC(C)C)NC(=O)[C@H](Cc1ccc(O)cc1)NC(=O)[C@H](CO)NC(=O)[C@H](CO)NC(=O)[C@@H](NC(=O)[C@H](CC(=O)O)NC(=O)[C@H](CO)NC(=O)[C@@H](NC(=O)[C@H](Cc1ccccc1)NC(=O)[C@@H](NC(=O)CNC(=O)[C@H](CCC(=O)O)NC(=O)C(C)(C)NC(=O)[C@@H](N)Cc1cnc[nH]1)[C@@H](C)O)[C@@H](C)O)C(C)C)C(=O)N[C@@H](C)C(=O)N[C@@H](Cc1c[nH]c2ccccc12)C(=O)N[C@@H](CC(C)C)C(=O)N[C@H](C(=O)N[C@@H](CCCNC(=N)N)C(=O)NCC(=O)N[C@@H](CCCNC(=N)N)C(=O)NCC(=O)O)C(C)C [Sema, semaglutide] | 170 | – | – |
| CC[C@H](C)[C@H](NC(=O)[C@H](CC(C)C)NC(=O)[C@H](Cc1c[nH]c2ccccc12)NC(=O)[C@H](CCC(N)=O)NC(=O)[C@@H](NC(=O)[C@H](Cc1ccccc1)NC(=O)[C@H](C)NC(=O)[C@H](CCCCNC(=O)COCCOCCNC(=O)COCCOCCNC(=O)CC[C@H](NC(=O)CCCCCCCCCCCCCCCCCCC(=O)O)C(=O)O)NC(=O)[C@H](CCC(N)=O)NC(=O)[C@H](C)NC(=O)[C@@H](NC(=O)[C@H](CCCCN)NC(=O)[C@H](CC(=O)O)NC(=O)[C@H](CC(C)C)NC(=O)C(C)(C)NC(=O)[C@@H](NC(=O)[C@H](CO)NC(=O)[C@H](Cc1ccc(O)cc1)NC(=O)[C@H](CC(=O)O)NC(=O)[C@H](CO)NC(=O)[C@@H](NC(=O)[C@H](Cc1ccccc1)NC(=O)[C@@H](NC(=O)CNC(=O)[C@H](CCC(=O)O)NC(=O)C(C)(C)NC(=O)[C@@H](N)Cc1ccc(O)cc1)[C@@H](C)O)[C@@H](C)O)[C@@H](C)CC)[C@@H](C)CC)C(C)C)C(=O)N[C@@H](C)C(=O)NCC(=O)NCC(=O)N1CCC[C@H]1C(=O)N[C@@H](CO)C(=O)N[C@@H](CO)C(=O)NCC(=O)N[C@@H](C)C(=O)N1CCC[C@H]1C(=O)N1CCC[C@H]1C(=O)N1CCC[C@H]1C(=O)N[C@@H](CO)C(N)=O [TZP, tirzepatide] | – | 3.87 ± 0.63 | noticeable weight loss in some animals |
